Source: PubChem BioAssay AID1963975 (Molecular Pharmacology Branch, DTP, NCI, 2024)
One block for each compound: values may come before it.

Tested on: 624824-186-R-J2-PDC multicell spheroids, viability
Experiment: Anticancer human tumor 624824-186-R-J2-PDC patient-derived colon adenocarcinoma cell line growth inhibition [PI3K]
Settings: for IC50: curve of first compound; for viability, T/C: stronger effect = lower value
How it was run: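 Viability of mixed-cell spheroids was determined after exposure to pairwise combinations, one partner being inavolisib, alpelisib, duvelisib or copanlisib. Highest tested concentration matched clinical Cmax where known and 10 microM where not, descending in half-log steps.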

[1] = second compound 0.0316 µM, first compound 0.0316 µM
[2] = second compound 0.0316 µM, first compound 0.1 µM
[3] = second compound 0.0316 µM, first compound 0.316 µM
[4] = second compound 0.0316 µM, first compound 1 µM
[5] = second compound 0.0316 µM, first compound 3.16 µM
[6] = second compound 0.0316 µM, first compound 10 µM
[7] = second compound 0.1 µM, first compound 0.0316 µM
[8] = second compound 0.1 µM, first compound 0.1 µM
[9] = second compound 0.1 µM, first compound 0.316 µM
[10] = second compound 0.1 µM, first compound 1 µM
[11] = second compound 0.1 µM, first compound 3.16 µM
[12] = second compound 0.1 µM, first compound 10 µM
[13] = second compound 0.316 µM, first compound 0.0316 µM
[14] = second compound 0.316 µM, first compound 0.1 µM
[15] = second compound 0.316 µM, first compound 0.316 µM
[16] = second compound 0.316 µM, first compound 1 µM
[17] = second compound 0.316 µM, first compound 3.16 µM
[18] = second compound 0.316 µM, first compound 10 µM
[19] = second compound 1 µM, first compound 0.0316 µM
[20] = second compound 1 µM, first compound 0.1 µM
[21] = second compound 1 µM, first compound 0.316 µM
[22] = second compound 1 µM, first compound 1 µM
[23] = second compound 1 µM, first compound 3.16 µM
[24] = second compound 1 µM, first compound 10 µM
[25] = second compound 3.16 µM, first compound 0.0316 µM
[26] = second compound 3.16 µM, first compound 0.1 µM
[27] = second compound 3.16 µM, first compound 0.316 µM
[28] = second compound 3.16 µM, first compound 1 µM
[29] = second compound 3.16 µM, first compound 3.16 µM
[30] = second compound 3.16 µM, first compound 10 µM
[31] = second compound 10 µM, first compound 0.0316 µM
[32] = second compound 10 µM, first compound 0.1 µM
[33] = second compound 10 µM, first compound 0.316 µM
[34] = second compound 10 µM, first compound 1 µM
[35] = second compound 10 µM, first compound 3.16 µM
[36] = second compound 10 µM, first compound 10 µM
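Also: spheroids exposed to agents for 7 days before viability read.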
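For viability, T/C in this document: 100% = DMSO vehicle treated spheroids.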

IC50 (second compound 0.0316 µM): > 10 µM
IC50 (second compound 0.1 µM): > 10 µM
IC50 (second compound 0.316 µM): > 10 µM
IC50 (second compound 1 µM): > 10 µM
IC50 (second compound 3.16 µM): > 10 µM
IC50 (second compound 10 µM): > 10 µM
Structure (SMILES): C#Cc1c(F)ccc2cc(O)cc(-c3ncc4c(N5CC6CCC(C5)N6)nc(OCC56CCCN5CC(F)C6)nc4c3F)c12 (stereo not drawn) + CC(Nc1ncnc2nc[nH]c12)c1cc2cccc(Cl)c2c(=O)n1-c1ccccc1
viability, T/C [1]: 81.5%
viability, T/C [2]: 80%
viability, T/C [3]: 106%
viability, T/C [4]: 73.1%
viability, T/C [5]: 93.2%
viability, T/C [6]: 59.5%
viability, T/C [7]: 83.8%
viability, T/C [8]: 78.7%
viability, T/C [9]: 76%
viability, T/C [10]: 74.1%
viability, T/C [11]: 77.9%
viability, T/C [12]: 67.7%
viability, T/C [13]: 78.9%
viability, T/C [14]: 93.6%
viability, T/C [15]: 93.8%
viability, T/C [16]: 82.5%
viability, T/C [17]: 64.5%
viability, T/C [18]: 71.9%
viability, T/C [19]: 73%
viability, T/C [20]: 72.8%
viability, T/C [21]: 81%
viability, T/C [22]: 76.6%
viability, T/C [23]: 86.3%
viability, T/C [24]: 75.5%
viability, T/C [25]: 78.8%
viability, T/C [26]: 97.9%
viability, T/C [27]: 74.7%
viability, T/C [28]: 84.3%
viability, T/C [29]: 94.6%
viability, T/C [30]: 70.2%
viability, T/C [31]: 87.4%
viability, T/C [32]: 83.2%
viability, T/C [33]: 91.4%
viability, T/C [34]: 102%
viability, T/C [35]: 98%
viability, T/C [36]: 89.4%

IC50 (second compound 0.0316 µM): 3.55 µM
IC50 (second compound 0.1 µM): 4.27 µM
IC50 (second compound 0.316 µM): 3.13 µM
IC50 (second compound 1 µM): 3.73 µM
IC50 (second compound 3.16 µM): 2.99 µM
IC50 (second compound 10 µM): 2.97 µM
Structure (SMILES): CC1(C)CCC(Nc2ncc(C(F)(F)F)c(-c3c[nH]c4c(P(C)(C)=O)c(C#N)ccc34)n2)CN1 (stereo not drawn) + CC(Nc1ncnc2nc[nH]c12)c1cc2cccc(Cl)c2c(=O)n1-c1ccccc1
viability, T/C [1]: 81.1%
viability, T/C [2]: 93.2%
viability, T/C [3]: 102%
viability, T/C [4]: 108%
viability, T/C [5]: 54.9%
viability, T/C [6]: 6.48%
viability, T/C [7]: 94.1%
viability, T/C [8]: 92.3%
viability, T/C [9]: 96.3%
viability, T/C [10]: 104%
viability, T/C [11]: 65.7%
viability, T/C [12]: 6.11%
viability, T/C [13]: 91%
viability, T/C [14]: 76.4%
viability, T/C [15]: 90.8%
viability, T/C [16]: 108%
viability, T/C [17]: 49.7%
viability, T/C [18]: 5.05%
viability, T/C [19]: 108%
viability, T/C [20]: 94.1%
viability, T/C [21]: 100%
viability, T/C [22]: 98.7%
viability, T/C [23]: 57.6%
viability, T/C [24]: 4.82%
viability, T/C [25]: 91.2%
viability, T/C [26]: 94.7%
viability, T/C [27]: 100%
viability, T/C [28]: 93.3%
viability, T/C [29]: 47.8%
viability, T/C [30]: 4.88%
viability, T/C [31]: 100%
viability, T/C [32]: 84.4%
viability, T/C [33]: 92.3%
viability, T/C [34]: 81.3%
viability, T/C [35]: 48.1%
viability, T/C [36]: 3.89%

IC50 (second compound 0.00316 µM): > 10 µM
IC50 (second compound 0.01 µM): > 10 µM
IC50 (second compound 0.0316 µM): > 10 µM
IC50 (second compound 0.1 µM): > 10 µM
IC50 (second compound 0.316 µM): > 10 µM
IC50 (second compound 1 µM): > 10 µM
Structure (SMILES): CNC(=O)c1ccc(N2C(=S)N(c3ccc(C#N)c(C(F)(F)F)c3)C(=O)C2(C)C)cc1F + COc1c(OCCCN2CCOCC2)ccc2c3n(c(=NC(=O)c4cnc(N)nc4)nc12)CCN3
viability, T/C (second compound 0.00316 µM, first compound 0.0316 µM): 77.2%
viability, T/C (second compound 0.00316 µM, first compound 0.1 µM): 74%
viability, T/C (second compound 0.00316 µM, first compound 0.316 µM): 76.4%
viability, T/C (second compound 0.00316 µM, first compound 1 µM): 91.7%
viability, T/C (second compound 0.00316 µM, first compound 3.16 µM): 89.6%
viability, T/C (second compound 0.00316 µM, first compound 10 µM): 110%
viability, T/C (second compound 0.01 µM, first compound 0.0316 µM): 110%
viability, T/C (second compound 0.01 µM, first compound 0.1 µM): 103%
viability, T/C (second compound 0.01 µM, first compound 0.316 µM): 99.3%
viability, T/C (second compound 0.01 µM, first compound 1 µM): 94%
viability, T/C (second compound 0.01 µM, first compound 3.16 µM): 96.9%
viability, T/C (second compound 0.01 µM, first compound 10 µM): 99%
viability, T/C [1]: 90.4%
viability, T/C [2]: 81.7%
viability, T/C [3]: 96.6%
viability, T/C [4]: 96.5%
viability, T/C [5]: 78.4%
viability, T/C [6]: 89.7%
viability, T/C [7]: 95.6%
viability, T/C [8]: 71.8%
viability, T/C [9]: 73.4%
viability, T/C [10]: 84%
viability, T/C [11]: 79.9%
viability, T/C [12]: 70.9%
viability, T/C [13]: 62.2%
viability, T/C [14]: 66.3%
viability, T/C [15]: 65%
viability, T/C [16]: 61.5%
viability, T/C [17]: 65.4%
viability, T/C [18]: 65.3%
viability, T/C [19]: 65%
viability, T/C [20]: 61.6%
viability, T/C [21]: 57.2%
viability, T/C [22]: 62.5%
viability, T/C [23]: 63%
viability, T/C [24]: 57.3%

IC50 (second compound 0.00316 µM): > 3 µM
IC50 (second compound 0.01 µM): > 3 µM
IC50 (second compound 0.0316 µM): 0.243 µM
IC50 (second compound 0.1 µM): 0.038 µM
IC50 (second compound 0.316 µM): < 0.00949 µM
IC50 (second compound 1 µM): < 0.00949 µM
Structure (SMILES): Cn1cnc2c(F)c(Nc3ccc(Br)cc3Cl)c(C(=O)NOCCO)cc21 + COc1c(OCCCN2CCOCC2)ccc2c3n(c(=NC(=O)c4cnc(N)nc4)nc12)CCN3
viability, T/C (second compound 0.00316 µM, first compound 0.00949 µM): 86%
viability, T/C (second compound 0.00316 µM, first compound 0.03 µM): 74.6%
viability, T/C (second compound 0.00316 µM, first compound 0.0949 µM): 64.4%
viability, T/C (second compound 0.00316 µM, first compound 0.3 µM): 68.7%
viability, T/C (second compound 0.00316 µM, first compound 0.949 µM): 72.8%
viability, T/C (second compound 0.00316 µM, first compound 3 µM): 63.1%
viability, T/C (second compound 0.01 µM, first compound 0.00949 µM): 79.3%
viability, T/C (second compound 0.01 µM, first compound 0.03 µM): 75.7%
viability, T/C (second compound 0.01 µM, first compound 0.0949 µM): 66.5%
viability, T/C (second compound 0.01 µM, first compound 0.3 µM): 62.6%
viability, T/C (second compound 0.01 µM, first compound 0.949 µM): 62.8%
viability, T/C (second compound 0.01 µM, first compound 3 µM): 51.4%
viability, T/C (second compound 0.0316 µM, first compound 0.00949 µM): 70.8%
viability, T/C (second compound 0.0316 µM, first compound 0.03 µM): 59.2%
viability, T/C (second compound 0.0316 µM, first compound 0.0949 µM): 53%
viability, T/C (second compound 0.0316 µM, first compound 0.3 µM): 51.5%
viability, T/C (second compound 0.0316 µM, first compound 0.949 µM): 42.4%
viability, T/C (second compound 0.0316 µM, first compound 3 µM): 28.5%
viability, T/C (second compound 0.1 µM, first compound 0.00949 µM): 60%
viability, T/C (second compound 0.1 µM, first compound 0.03 µM): 54.6%
viability, T/C (second compound 0.1 µM, first compound 0.0949 µM): 36%
viability, T/C (second compound 0.1 µM, first compound 0.3 µM): 37.4%
viability, T/C (second compound 0.1 µM, first compound 0.949 µM): 31.4%
viability, T/C (second compound 0.1 µM, first compound 3 µM): 15.3%
viability, T/C (second compound 0.316 µM, first compound 0.00949 µM): 50.7%
viability, T/C (second compound 0.316 µM, first compound 0.03 µM): 38.9%
viability, T/C (second compound 0.316 µM, first compound 0.0949 µM): 39.9%
viability, T/C (second compound 0.316 µM, first compound 0.3 µM): 28.3%
viability, T/C (second compound 0.316 µM, first compound 0.949 µM): 18.9%
viability, T/C (second compound 0.316 µM, first compound 3 µM): 2.2%
viability, T/C (second compound 1 µM, first compound 0.00949 µM): 49.1%
viability, T/C (second compound 1 µM, first compound 0.03 µM): 39.7%
viability, T/C (second compound 1 µM, first compound 0.0949 µM): 33.5%
viability, T/C (second compound 1 µM, first compound 0.3 µM): 26.4%
viability, T/C (second compound 1 µM, first compound 0.949 µM): 11.1%
viability, T/C (second compound 1 µM, first compound 3 µM): 1.13%
